Assay [1] relates to Human Multiple myeloma cell line (MM.1S). Put plainly: Inhibition of MM.1S cell proliferation (CellTiter luminescent viability). Type of assay: cell-based. To be noted: Homo sapiens, MM1.S, Table IG1, FAK inhibitor-based, 96 hours; for inhibition at 0.01 µM: 10 nM, read-out: Inhibition Rate at 10 nM (%); for inhibition at 0.5 µM: 500 nM, read-out: Inhibition Rate at 500 nM (%). The gist of the method: (§1)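 IC50 is fitted from luminescent viability (CellTiter-Meiluncell) curves. Nine-point, 5-fold dilution series (top stock 2000 μM) are added at 0.5 μL per 100 μL medium to cells plated the day before, with growth at 37 °C and 5% CO2.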

Assay [2] deals with Human myeloid monocytic leukemia cell line (MV-4-11). In words: Inhibition of MV-4-11 cell proliferation (CellTiter luminescent viability). Type of assay: cell-based. The note with it: Homo sapiens, MV4-11; for inhibition at 0.01 µM: read-out: Inhibition Rate at 10 nM (%); for inhibition at 0.5 µM: read-out: Inhibition Rate at 500 nM (%). The gist of the method:
as §1

The test system of assay [3] is Human breast cancer cell line (MDA-MB-231). In words: Inhibition of MDA-MB-231 cell proliferation (CellTiter luminescent viability). Type of assay: cell-based. The note with it: for inhibition at 0.01 µM: read-out: Inhibition Rate at 10 nM (%); for inhibition at 0.5 µM: read-out: Inhibition Rate at 500 nM (%). The protocol: The tumor cells used herein were cultured in a cell culture medium listed in table 3 at 37 °C in an incubator with 5% CO2. Prior to experimentation, all cell lines used were correctly identified by STR profiling, and tested negative for mycoplasma contamination using a mycoplasma detection kit through routine screenings.
The IC50 values of the compounds of the present disclosure (including the compounds in Table 1, Table 2, and Examples 1-468) were determined using the CellTiter-Meiluncell Luminescent Cell Viability Assay Kit from Dalian Meilun Biotech Co., Ltd. The detailed procedure is as follows: Tumor cells were seeded in 96-well cell culture plates at the densities specified in Table 4. On the following day, the test compounds of the present disclosure were subjected to serial dilution. The dilution can be performed according to one of the following two methods: • (1) The first dilution method: The test compounds of the present disclosure (including the compounds in Table 1, Table 2, and Examples 1-468) were subjected to 5-fold serial dilutions starting from a highest concentration of 2000 μM, resulting in a total of 9 concentrations from high to low (2000, 400, 80, 16, 3.2, 0.64, 0.128, 0.0256, 0.00512 μM). Subsequently, 0.5 μL of the test compound dilution was transferred into the 96-well plate containing the cells, with each well containing 100 μL of cell culture medium. […] Into the 96-well plate, the diluted test compounds and corresponding detection reagents were added, resulting in final test compound concentrations of 500 nM and 10 nM, respectively. The experimental procedure is described below using the diluted 2 μM test compound as an example.
0.5 μL of the aforementioned diluted compound of the present disclosure (including the compounds in Table 1, Table 2, and Examples 1-468) was added to the seeded cells in 100 μL of medium, yielding a final test compound concentration of 10 nM. After the cells were treated with the compounds of the present disclosure for a specified period, the cell viability assay reagent was added to the culture medium according to the kit's instructions to determine cell viability. […] All controls were treated using the same procedure as the compounds of the present disclosure. The growth inhibition curves for the compounds of the present disclosure were plotted using Prism GraphPad software, and the IC50 values were calculated therefrom.

A further assay addresses T1, IKZF2 (Homo sapiens, UniProt Q96SW2+Q9UKS7).
T1 construct: expression of target proteins in cells; endogenous in cells
In words: Western blot degradation of IKZF2. Type of assay: cell-based. To be noted: hPBMC Cell; 24 hours. The gist of the method: (§2)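 Immunoblot of drug-treated versus DMSO-treated cell lysates, with densitometric quantification. Values: DC50 (50% band loss, fitted) and loading-control-normalised % remaining or degradation.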
In general terms: A western blot detects proteins with antibodies after separation by electrophoresis.

A further assay has as its target T2, IKZF1 (Homo sapiens, UniProt Q13422+Q96SW2).
T2 construct: expression of target proteins in cells; endogenous in cells
In words: Western blot degradation of IKZF1. Type of assay: cell-based. The note with it: hPBMC Cell; 24 hours. The gist of the method: as §2

The next assay addresses T3, WEE1 (Homo sapiens, UniProt P30291+Q96SW2).
T3 construct: expression of target proteins in cells; endogenous in cells
Put plainly: Western blot degradation of WEE1. Type of assay: cell-based. The note with it: hPBMC Cell; 24 hours. The method in brief:
as §2

In another assay the target is T4, CK1α (Homo sapiens, UniProt P48729+Q96SW2).
T4 construct: expression of target proteins in cells; endogenous in cells
Put plainly: Western blot degradation of CK1α. To be noted: hPBMC Cell; 24 hours. Type of assay: cell-based. The method in brief:
as §2

A further assay deals with T5, GSPT1 (Homo sapiens, UniProt P15170+Q96SW2).
T5 construct: expression of target proteins in cells; endogenous in cells
In words: Western blot degradation of GSPT1. Type of assay: cell-based. To be noted: hPBMC Cell; 24 hours. The gist of the method: as §2

Another assay has as its target T6, IKZF3 (Homo sapiens, UniProt Q96SW2+Q9UKT9).
T6 construct: expression of target proteins in cells; endogenous in cells
In words: Western blot degradation of IKZF3. The note with it: hPBMC Cell; 24 hours. Type of assay: cell-based. The method in brief:
as §2

Assay [4] deals with T7, human Cereblon WT GST-tagged protein (CRBN) (Homo sapiens, UniProt Q96SW2).
T7 construct: purchased CISBIO 64BDCRBNPEH
In words: CRBN binding by HTRF (Cereblon binding kit). The gist of the method: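 GST-tagged human Cereblon WT was incubated 3 h at room temperature with compound, thalidomide-Re tracer and Eu anti-GST antibody. Final compound concentrations were 10 to 0.00064 µM (7 points) or 2 and 0.5 µM. Inhibition rate was calculated from HTRF 665/620 nm ratios versus solvent and blank controls.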
(In general: Time-resolved FRET reads energy transfer from a long-lived donor to a nearby acceptor.)

The test system of assay [5] is Human lung cancer cell line (H292). Put plainly: Inhibition of H292 cell proliferation (CellTiter luminescent viability). Type of assay: cell-based. The note with it: NCI-H292, H292 cell; for inhibition at 0.01 µM: 10 nM, read-out: Inhibition Rate at 10 nM (%); for inhibition at 0.5 µM: 500 nM, read-out: Inhibition Rate at 500 nM (%).
Where [6] appears, read: Table IG2, FAK inhibitor-based, MV-4-11, 10 nM, 96 hours.
[7] abbreviates: Table IG2, FAK inhibitor-based, MV-4-11, 500 nM, 96 hours.
[8] abbreviates: Table IG3, FAK inhibitor-based, MDA-MB-231, 10 nM, 96 hours.
Where [9] appears, read: Table IG3, FAK inhibitor-based, MDA-MB-231, 500 nM, 96 hours.

Consider eight compounds from patent US20260364184A1, “COMPOUND BASED ON OXOISOINDOLINYL-SUBSTITUTED TETRAHYDROPYRIMIDINE-DIONE AND USE THEREOF” (GLUETACS THERAPEUTICS (SHANGHAI) CO., LTD., priority 2023, published 2026).

Read-outs that look alike come from different tables or passages of the source.

One may read the inhibition as the drop in the measured response relative to a control, in per cent. In general, IC50 refers to the midpoint of a concentration-inhibition curve. Low values mean higher potency, high ones lower potency.

T5 sequence (P15170 whole entry): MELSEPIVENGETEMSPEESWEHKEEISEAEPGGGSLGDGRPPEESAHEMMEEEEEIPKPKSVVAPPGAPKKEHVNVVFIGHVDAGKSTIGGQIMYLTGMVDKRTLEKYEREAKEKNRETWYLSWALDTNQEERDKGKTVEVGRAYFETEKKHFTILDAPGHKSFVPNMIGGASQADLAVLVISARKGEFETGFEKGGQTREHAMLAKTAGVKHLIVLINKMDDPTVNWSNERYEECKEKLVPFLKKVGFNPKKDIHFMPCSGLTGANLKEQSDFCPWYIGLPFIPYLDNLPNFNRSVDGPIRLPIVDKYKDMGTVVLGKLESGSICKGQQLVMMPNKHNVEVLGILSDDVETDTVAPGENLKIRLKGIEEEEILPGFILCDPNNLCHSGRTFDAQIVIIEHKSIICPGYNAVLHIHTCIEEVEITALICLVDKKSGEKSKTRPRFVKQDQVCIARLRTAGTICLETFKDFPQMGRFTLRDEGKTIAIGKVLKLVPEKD
T5 sequence (Q96SW2 whole entry): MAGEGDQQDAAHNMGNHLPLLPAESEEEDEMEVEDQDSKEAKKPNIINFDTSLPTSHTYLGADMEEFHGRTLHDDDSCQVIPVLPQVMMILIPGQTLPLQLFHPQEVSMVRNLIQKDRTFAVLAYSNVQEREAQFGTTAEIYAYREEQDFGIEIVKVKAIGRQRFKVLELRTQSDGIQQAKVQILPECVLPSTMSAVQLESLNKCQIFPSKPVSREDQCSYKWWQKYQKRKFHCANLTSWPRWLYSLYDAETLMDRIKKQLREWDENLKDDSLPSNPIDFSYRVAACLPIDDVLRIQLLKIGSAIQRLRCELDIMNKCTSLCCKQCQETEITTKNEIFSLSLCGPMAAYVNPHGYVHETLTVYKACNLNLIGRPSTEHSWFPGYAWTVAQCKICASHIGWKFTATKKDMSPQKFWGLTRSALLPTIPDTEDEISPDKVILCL
T5 sequence (Q16531 whole entry partner): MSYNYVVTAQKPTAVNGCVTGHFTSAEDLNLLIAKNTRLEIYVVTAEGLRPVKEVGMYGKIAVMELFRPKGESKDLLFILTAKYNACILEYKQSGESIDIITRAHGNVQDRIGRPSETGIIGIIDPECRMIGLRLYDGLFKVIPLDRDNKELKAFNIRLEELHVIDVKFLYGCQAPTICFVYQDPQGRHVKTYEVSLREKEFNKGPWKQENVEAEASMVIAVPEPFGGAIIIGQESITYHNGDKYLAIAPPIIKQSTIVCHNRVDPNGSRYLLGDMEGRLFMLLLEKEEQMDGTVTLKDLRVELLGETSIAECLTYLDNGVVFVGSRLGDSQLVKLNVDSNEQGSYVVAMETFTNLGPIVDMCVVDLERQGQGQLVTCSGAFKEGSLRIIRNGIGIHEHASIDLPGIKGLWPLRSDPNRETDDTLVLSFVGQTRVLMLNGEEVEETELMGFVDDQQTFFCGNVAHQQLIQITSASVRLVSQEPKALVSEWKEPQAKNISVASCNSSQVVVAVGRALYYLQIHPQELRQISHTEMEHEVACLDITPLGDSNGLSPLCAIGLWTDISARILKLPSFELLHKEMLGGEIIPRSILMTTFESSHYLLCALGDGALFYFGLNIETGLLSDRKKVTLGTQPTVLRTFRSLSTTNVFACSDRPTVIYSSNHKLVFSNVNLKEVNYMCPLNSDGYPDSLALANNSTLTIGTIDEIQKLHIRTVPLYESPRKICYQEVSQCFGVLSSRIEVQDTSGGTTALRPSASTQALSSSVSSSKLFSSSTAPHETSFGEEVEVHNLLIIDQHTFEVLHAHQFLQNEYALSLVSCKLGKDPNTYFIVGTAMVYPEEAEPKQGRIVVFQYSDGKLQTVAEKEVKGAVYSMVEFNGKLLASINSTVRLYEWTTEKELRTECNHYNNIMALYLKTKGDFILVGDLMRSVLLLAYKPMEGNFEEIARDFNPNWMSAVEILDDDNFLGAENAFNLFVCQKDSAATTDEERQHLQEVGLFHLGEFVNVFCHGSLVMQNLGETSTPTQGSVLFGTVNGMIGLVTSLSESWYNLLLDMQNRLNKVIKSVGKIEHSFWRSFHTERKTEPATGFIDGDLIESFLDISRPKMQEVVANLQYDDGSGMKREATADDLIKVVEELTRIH
T6 sequence (Q9UKT9 whole entry): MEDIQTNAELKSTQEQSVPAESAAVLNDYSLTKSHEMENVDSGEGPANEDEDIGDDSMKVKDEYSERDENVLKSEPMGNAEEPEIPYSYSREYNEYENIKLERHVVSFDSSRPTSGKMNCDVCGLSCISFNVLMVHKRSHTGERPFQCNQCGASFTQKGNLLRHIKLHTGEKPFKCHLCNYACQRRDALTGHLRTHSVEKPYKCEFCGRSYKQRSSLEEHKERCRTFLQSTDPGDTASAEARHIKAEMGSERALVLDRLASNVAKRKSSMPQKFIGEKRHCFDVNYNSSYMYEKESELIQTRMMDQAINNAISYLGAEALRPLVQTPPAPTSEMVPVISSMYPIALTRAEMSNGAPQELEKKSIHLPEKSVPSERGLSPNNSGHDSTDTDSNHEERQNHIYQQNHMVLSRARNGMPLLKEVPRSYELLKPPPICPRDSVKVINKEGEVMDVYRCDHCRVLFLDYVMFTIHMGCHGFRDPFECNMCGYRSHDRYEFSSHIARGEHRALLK
T6 sequence (Q96SW2 whole entry): as the sequence (Q96SW2 whole entry) above
T6 sequence (Q16531 whole entry partner): as the sequence (Q16531 whole entry partner) above
T1 sequence (Q9UKS7 whole entry): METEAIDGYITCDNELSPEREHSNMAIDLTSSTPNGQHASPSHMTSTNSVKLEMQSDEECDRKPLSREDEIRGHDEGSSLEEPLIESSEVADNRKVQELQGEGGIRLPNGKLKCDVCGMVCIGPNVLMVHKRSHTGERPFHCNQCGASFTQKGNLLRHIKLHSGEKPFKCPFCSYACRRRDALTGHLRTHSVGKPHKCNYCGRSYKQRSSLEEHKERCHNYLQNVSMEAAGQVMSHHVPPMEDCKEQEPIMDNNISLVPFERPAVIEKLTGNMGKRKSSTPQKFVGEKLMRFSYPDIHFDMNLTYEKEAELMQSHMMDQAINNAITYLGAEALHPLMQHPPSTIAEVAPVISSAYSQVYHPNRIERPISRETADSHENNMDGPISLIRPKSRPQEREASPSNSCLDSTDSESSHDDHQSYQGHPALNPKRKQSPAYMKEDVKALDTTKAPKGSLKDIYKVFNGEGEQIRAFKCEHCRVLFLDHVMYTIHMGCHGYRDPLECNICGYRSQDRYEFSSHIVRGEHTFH
T1 sequence (Q96SW2 whole entry): as the sequence (Q96SW2 whole entry) above
T1 sequence (Q16531 whole entry partner): as the sequence (Q16531 whole entry partner) above
T2 sequence (Q13422 whole entry): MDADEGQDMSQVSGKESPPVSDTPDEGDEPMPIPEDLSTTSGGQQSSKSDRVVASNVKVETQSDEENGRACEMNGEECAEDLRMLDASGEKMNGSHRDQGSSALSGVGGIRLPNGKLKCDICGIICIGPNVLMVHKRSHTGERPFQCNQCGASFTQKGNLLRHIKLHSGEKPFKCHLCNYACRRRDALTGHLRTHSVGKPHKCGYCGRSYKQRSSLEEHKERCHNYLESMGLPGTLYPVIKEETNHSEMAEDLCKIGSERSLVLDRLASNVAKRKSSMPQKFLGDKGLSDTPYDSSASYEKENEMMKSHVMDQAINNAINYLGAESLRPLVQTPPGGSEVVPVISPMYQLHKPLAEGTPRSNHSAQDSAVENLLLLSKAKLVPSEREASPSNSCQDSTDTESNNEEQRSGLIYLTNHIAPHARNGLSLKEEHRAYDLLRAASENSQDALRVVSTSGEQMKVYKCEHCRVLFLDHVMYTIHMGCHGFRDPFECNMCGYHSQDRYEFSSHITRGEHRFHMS
T2 sequence (Q96SW2 whole entry): as the sequence (Q96SW2 whole entry) above
T2 sequence (Q16531 whole entry partner): as the sequence (Q16531 whole entry partner) above
T7 sequence (Q96SW2 whole entry): as the sequence (Q96SW2 whole entry) above
T4 sequence (P48729 whole entry): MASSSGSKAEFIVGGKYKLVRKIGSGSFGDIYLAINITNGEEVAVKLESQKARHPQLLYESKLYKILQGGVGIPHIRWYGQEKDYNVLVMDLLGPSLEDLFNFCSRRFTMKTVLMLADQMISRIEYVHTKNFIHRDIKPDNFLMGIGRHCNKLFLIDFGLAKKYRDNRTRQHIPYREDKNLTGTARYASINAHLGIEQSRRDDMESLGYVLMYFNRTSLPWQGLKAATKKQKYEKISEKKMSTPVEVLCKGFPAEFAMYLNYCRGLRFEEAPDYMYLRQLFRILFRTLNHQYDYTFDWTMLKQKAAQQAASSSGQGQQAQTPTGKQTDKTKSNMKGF
T4 sequence (Q96SW2 whole entry): as the sequence (Q96SW2 whole entry) above
T4 sequence (Q16531 whole entry partner): as the sequence (Q16531 whole entry partner) above

`CNC(=O)c1ccc(Nc2ncc(C(F)(F)F)c(NCc3nccnc3N(C)S(C)(=O)=O)n2)cc1` [Defactinib, reference compound]: the inhibition at 0.01 µM in [1] is 5 to 10%; in assay [2] (setting [6]), 5 to 10%; in [3] (setting [8]), 30 to 40%. The inhibition at 0.5 µM in assay [1] lay in the range of 5 to 10%; in assay [2] (setting [7]), 60 to 70%; in assay [3] (setting [9]), 30 to 40%.
As for `O=C1CCN(N2Cc3cc(CBr)ccc3C2=O)C(=O)N1` [GT-05568, 1-(5-(bromomethyl)-1-oxoisoindolin-2-yl)dihydropyrimidine-2,4(1H, 3H)-dione], the “Degradation of substrate protein IKZF2 (substrate protein remaining %)” value on IKZF2 is “B (80%<substrate protein remaining %≤100%)”. Besides, the “Degradation of substrate protein IKZF1 (substrate protein remaining %)” value on IKZF1 is reported as “A (0%≤substrate protein remaining %≤80%)”. Besides, the “Degradation of substrate protein WEE1 (substrate protein remaining %)” value at WEE1 is given as “A (0%≤substrate protein remaining %≤80%)”. The “Degradation of substrate protein CK1α (substrate protein remaining %)” value on CK1α is listed as “A (0%≤substrate protein remaining %≤80%)”. The “Degradation of substrate protein GSPT1 (substrate protein remaining %)” value at GSPT1 is reported as “A (0%≤substrate protein remaining %≤80%)”. Also, at IKZF3, the “Degradation of substrate protein IKZF3 (substrate protein remaining %)” value is reported as “A (0%≤substrate protein remaining %≤80%)”. This compound also gave an IC50 in assay [4] of 1 to 1.5 µM.
As for `NCc1ccc2c(c1)CN(N1CCC(=O)NC1=O)C2=O` [GT-08118, 1-(5-(aminomethyl)-1-oxoisoindolin-2-yl)dihydropyrimidine-2,4(1H, 3H)-dione], the inhibition at 0.01 µM was in the range of 40 to 50% in assay [2] (MV-4-11 cell, 10 nM); 20 to 30% in assay [5]; 20 to 30% in assay [3] (MDA-MB-231 cell, 10 nM). Also, the inhibition at 0.5 µM fell in the range of 50 to 60% in [2] (MV-4-11 cell, 500 nM); 20 to 30% in assay [5]; 20 to 30% in [3] (MDA-MB-231 cell, 500 nM).
As for `CN(Cc1ccc2c(c1)C(=O)N(N1CCC(=O)NC1=O)C2)C1CCN(c2ccc(Nc3ncc(C(F)(F)F)c(NCc4nccnc4N(C)S(C)(=O)=O)n3)cc2)CC1` [GT-08136, N-(3-(((2-((4-(4-(((2-(2,4-dioxotetrahydropyrimidin-1(2H)-yl)-3-oxoisoindolin-5-yl)methyl)(methyl)amino)piperidin-1-yl)phenyl)amino)-5-(trifluoromethyl)pyrimidin-4-yl)amino)methyl)pyrazin-2-yl)-N-methylmethanesulfonamide], the inhibition at 0.01 µM in [2] (setting [6]) was -5 to 0%; in assay [3] (setting [8]), 20 to 30%. Besides, the inhibition at 0.5 µM in assay [2] (setting [7]) lay in the range of 80 to 100%; in assay [3] (setting [9]), 50 to 60%.
Regarding `CN(c1nccnc1CNc1nc(Nc2ccc(N3CCC(N4CCN(CC5CCN(c6cccc7c6C(=O)N(N6CCC(=O)NC6=O)C7=O)CC5)CC4)CC3)cc2)ncc1C(F)(F)F)S(C)(=O)=O` [GT-08245, N-(3-(((2-((4-(4-(4-((1-(2-(2,4-dioxotetrahydropyrimidin-1(2H)-yl)-1,3-dioxoisoindolin-4-yl)piperidin-4-yl)methyl)piperazin-1-yl)piperidin-1-yl)phenyl)amino)-5-(trifluoromethyl)pyrimidin-4-yl)amino)methyl)pyrazin-2-yl)-N-methylmethanesulfonamide], the inhibition at 0.01 µM in assay [1] was 5 to 10%; in assay [2] (setting [6]), 20 to 30%; in assay [3] (setting [8]), 30 to 40%. In addition, the inhibition at 0.5 µM in assay [1], in assay [2] (setting [7]) and in [3] (setting [9]) was 80 to 100% throughout.
Consider `CN(c1cccc(CNc2nc(Nc3ccc(N4CCC(N5CCN(CC6CCN(c7cccc8c7C(=O)N(N7CCC(=O)NC7=O)C8=O)CC6)CC5)CC4)cc3)ncc2C(F)(F)F)c1)S(C)(=O)=O` [GT-08248, N-(3-(((2-((4-(4-(4-((1-(2-(2,4-dioxotetrahydropyrimidin-1(2H)-yl)-1,3-dioxoisoindolin-4-yl)piperidin-4-yl)methyl)piperazin-1-yl)piperidin-1-yl)phenyl)amino)-5-(trifluoromethyl)pyrimidin-4-yl)amino)methyl)phenyl)-N-methylmethanesulfonamide], for which the inhibition at 0.01 µM in [1] lay in the range of 30 to 40%; in assay [2] (setting [6]), 20 to 30%; in assay [3] (setting [8]), 20 to 30%. Moreover, the inhibition at 0.5 µM lay within 60 to 80% in [1], 80 to 100% in [2] (setting [7]) and 70 to 80% in assay [3] (setting [9]).
`Nc1cccc2c1CN(C1CCC(=O)NC1=O)C2=O` (centres unmarked) [Lenalidomide, lenalidomide, reference compound]: the inhibition at 0.01 µM is 20 to 30% in assay [2] (MV-4-11 cell, 10 nM); 15 to 20% in assay [5]; 0 to 5% in assay [3] (MDA-MB-231 cell, 10 nM). For the same compound, the inhibition at 0.5 µM in [2] (MV-4-11 cell, 500 nM) fell in the range of 10 to 15%; in assay [5] it was 0 to 5%; in assay [3] (MDA-MB-231 cell, 500 nM) it was 0 to 5%.
On to `CNC(=O)c1ccccc1Nc1cc(Nc2ccc(N3CCOCC3)cc2OC)ncc1C(F)(F)F` [PND-1186, reference compound], for which the values for the inhibition at 0.01 µM in assay [1], in assay [2] (setting [6]) and in assay [3] (setting [8]) were 5 to 10%, 5 to 10% and 30 to 40%, respectively. Further, the results for the inhibition at 0.5 µM in [1], in assay [2] (setting [7]) and in assay [3] (setting [9]) were 20 to 30%, 60 to 70% and 40 to 50%, respectively.
